Patent publication US4631289A, “Useful in radiotherapy of chemotherapy 4-aziridino-1-nitroimidazol-1-yl-2,3-butanediols” (National Research Development Corporation, priority 1982, dated 1986)
Read-outs that look alike come from different tables or passages of the source.

How the values were obtained:
[1] = test system: irradiated hypoxic V79 mammalian cells; experiment: Sensitisation: concentration for enhancement ratio of 1.6 in irradiated hypoxic V79 cells; assay type: cell-based; details: Cricetulus griseus, read-out: C1.6 (concentration required to achieve an enhancement ratio of 1.6)
From the text: ^a Concentration required to achieve an enhancement ratio of 1.6 in
irradiated hypoxic V79 mammalian cells.

[2] = Toxicity, LD50, i.p. in female WHT mice; details: mouse, in vivo, ip
From the text: (§1) ^b Drugs administered i.p. to .female. WHT mice.

[3] = test system: MT tumour; experiment: Radiosensitization: enhancement of radiation treatment in WHT mice bearing MT tumour (Example 2); assay type: in vivo; details: administered dose 3.8 mmoles/kg, intraperitoneal, before radiation; tumour implanted subcutaneously
Description: (§2) In the following Examples, WHT mice in which the MT tumour has been implanted subcutaneously are administered the compound of Example 1 intraperitoneally before treatment with radiation or with the chemotherapeutic agent melphalan. The time before such treatment at which the drug is administered is such that maximum enhancement is effected. The results of treatment with radiation and the chemotherapeutic drug are set out respectively in Tables I and II together with comparison results using misonidazole (MISO) and the compound Ro-03-8799. The asterisks against the results from treatment with the latter compounds indicate that the tumours treated in these cases are intramuscular.

[4] = test system: MT tumour; experiment: Chemosensitization (melphalan): enhancement of melphalan treatment in WHT mice bearing MT tumour (Example 3); assay type: in vivo; details: i.p. before melphalan
Description: as §2

[5] = Toxicity, LD50, i.p. in male CRCD1 mice; details: mouse, in vivo, ip, male CRCD1 mice (footnote c)
From the text: as §1
^c For Compound of Example 1 in .male. CRCD1 mice

[6] = administered dose 0.72 mmoles/kg, * tumours intramuscular

Row | SMILES | EC (enhancement ratio 1.6) ([1]; V79, light or radiation study) [µM] | LD50 [2] [µmol/kg] | other results
1 | O=[N+]([O-])c1nccn1CC(O)CN1CC1c1ccccc1 (stereo not shown) [Example 8, 1-(2-Nitro-1-imidazolyl)-3-(2-phenyl-1-aziridino)-2-propanol] | 300 | – | –
2 | CC1(C)CN1CC(O)Cn1ccnc1[N+](=O)[O-] (stereo not shown) [Example 7, 1-(2-Nitro-1-imidazolyl)-3-(2,2-dimethyl-1-aziridino)-2-propanol] | 80 | 1250 | –
3 | C[C@@H]1[C@@H](C)N1CC(O)Cn1ccnc1[N+](=O)[O-] (relative stereo) [Example 14, 1-(2-Nitro-1-imidazolyl)-3-(2,3-dimethyl-1-aziridino)-2-propanol] | 80 | – | –
4 | CCC1CN1CC(O)Cn1ccnc1[N+](=O)[O-] (stereo not shown) [Example 5, 1-(2-Nitro-1-imidazolyl)-3-(2-ethyl-1-aziridino)-2-propanol] | 130 | 580 | –
5 | COCC(O)Cn1ccnc1[N+](=O)[O-] (stereo not shown) [MISO, misonidazole] | – | – | Enhancement ratio (Radiosensitization) [3]: 1.3; Enhancement ratio (Chemosensitization, melphalan) [4, 6]: 1.7
6 | Cc1ncc([N+](=O)[O-])n1CC(O)CN1CC1 (stereo not shown) [Example 11, 1-(2-methyl-5-nitro-1-imidazolyl)-3-(1-aziridino or substitutedaziridino)-2-propanol] | 300 | 800 | –
7 | O=[N+]([O-])c1nccn1CC(O)CN1CC1 (stereo not shown) [Example 1, 1-(2-Nitro-1-imidazolyl)-3-(1-aziridino)-2-propanol] | – | – | Enhancement ratio (Radiosensitization) [3]: 1.7; LD50 [5]: 610 µmol/kg; EC (enhancement ratio 1.6) ([1]; light or radiation study, irradiated hypoxic V79 mammalian cells): 100 µM; Enhancement ratio (Chemosensitization, melphalan) ([4]; administered dose 0.08 mmoles/kg, tumour implanted subcutaneously): 3.0
8 | CC(C)C1CN1CC(O)Cn1ccnc1[N+](=O)[O-] (stereo not shown) [Example 9, 1-(2-Nitro-1-imidazolyl)-3-(2-isopropyl-1-aziridino)-2-propanol] | 130 | ≤ 1180 | –
9 | CC1CN1CC(O)Cn1ccnc1[N+](=O)[O-] (stereo not shown) [Example 4, 1-(2-Nitro-1-imidazolyl)-3-(2-methyl-1-aziridino)-2-propanol] | 80 | < 580 | –
10 | O=[N+]([O-])c1nccn1CC(O)C(O)CN1CC1 (stereo not shown) [Example 10, 1-(2-Nitro-1-imidazolyl)-4-(1-aziridino) or substituted aziridino)-2,3-butane-diol] | 130 | 410 | –
11 | O=[N+]([O-])c1nccn1CC(O)CN1CCCCC1 (stereo not shown) [Example 8799] | – | – | Enhancement ratio (Radiosensitization) [3]: 1.3; Enhancement ratio (Chemosensitization, melphalan) [4, 6]: 2.2; Enhancement ratio (Chemosensitization, melphalan) ([4]; administered dose 0.72 mmoles/kg, tumour implanted subcutaneously): 1.9
12 | C[C@@H]1[C@H](C)N1CC(O)Cn1ccnc1[N+](=O)[O-] (relative stereo) [Example 13, 1-(2-Nitro-1-imidazolyl)-3-(2,3-dimethyl-1-aziridino)-2-propanol] | 80 | ≤ 1250 | –
